Reference: paper PMC5414049 (Science (New York, N.Y.), 2016)

Tests used:
Assay type in all cases: biochemical
[1] = target: ornithine transcarbamylase (Arg3) (Saccharomyces cerevisiae, UniProt P05150)
pyruvate kinase (Cdc19) = target: T1, pyruvate kinase (Cdc19) (Saccharomyces cerevisiae, UniProt P00549)
T1 sequence (P00549 2-500): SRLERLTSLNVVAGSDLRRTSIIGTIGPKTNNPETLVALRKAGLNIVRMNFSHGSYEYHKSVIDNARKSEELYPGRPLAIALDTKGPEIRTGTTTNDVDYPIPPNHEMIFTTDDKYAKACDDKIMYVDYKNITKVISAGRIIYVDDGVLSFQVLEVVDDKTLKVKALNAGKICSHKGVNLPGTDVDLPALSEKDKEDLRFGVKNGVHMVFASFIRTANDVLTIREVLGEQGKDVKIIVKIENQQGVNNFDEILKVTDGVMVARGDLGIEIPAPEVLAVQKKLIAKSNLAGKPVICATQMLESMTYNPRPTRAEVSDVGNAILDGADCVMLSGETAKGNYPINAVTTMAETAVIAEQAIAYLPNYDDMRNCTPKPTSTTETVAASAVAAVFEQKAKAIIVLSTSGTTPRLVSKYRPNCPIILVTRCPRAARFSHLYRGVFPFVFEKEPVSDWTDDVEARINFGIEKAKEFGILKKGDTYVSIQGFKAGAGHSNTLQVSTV

[2] = target: T2, pyruvate decarboxylase (Pdc1) (Saccharomyces cerevisiae, UniProt P06169); assay: ADH/NADH-coupled spectrophotometric assay, 1H-NMR confirmation
T2 sequence (P06169 2-563): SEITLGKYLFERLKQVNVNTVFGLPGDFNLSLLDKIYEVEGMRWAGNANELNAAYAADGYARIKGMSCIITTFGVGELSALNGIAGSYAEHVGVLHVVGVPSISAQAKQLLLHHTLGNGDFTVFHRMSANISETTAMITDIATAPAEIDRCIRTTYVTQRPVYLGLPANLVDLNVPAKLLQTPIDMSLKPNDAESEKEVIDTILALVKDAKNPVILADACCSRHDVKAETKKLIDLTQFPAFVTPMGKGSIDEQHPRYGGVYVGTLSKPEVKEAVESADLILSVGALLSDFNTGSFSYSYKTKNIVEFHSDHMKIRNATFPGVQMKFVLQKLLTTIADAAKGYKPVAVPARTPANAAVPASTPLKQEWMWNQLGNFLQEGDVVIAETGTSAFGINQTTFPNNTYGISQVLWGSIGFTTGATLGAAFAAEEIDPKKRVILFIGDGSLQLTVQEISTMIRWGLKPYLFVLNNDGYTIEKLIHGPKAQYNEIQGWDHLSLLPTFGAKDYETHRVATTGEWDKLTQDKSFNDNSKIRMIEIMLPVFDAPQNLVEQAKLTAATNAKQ

Sequence of ornithine transcarbamylase (Arg3) (P05150 2-338): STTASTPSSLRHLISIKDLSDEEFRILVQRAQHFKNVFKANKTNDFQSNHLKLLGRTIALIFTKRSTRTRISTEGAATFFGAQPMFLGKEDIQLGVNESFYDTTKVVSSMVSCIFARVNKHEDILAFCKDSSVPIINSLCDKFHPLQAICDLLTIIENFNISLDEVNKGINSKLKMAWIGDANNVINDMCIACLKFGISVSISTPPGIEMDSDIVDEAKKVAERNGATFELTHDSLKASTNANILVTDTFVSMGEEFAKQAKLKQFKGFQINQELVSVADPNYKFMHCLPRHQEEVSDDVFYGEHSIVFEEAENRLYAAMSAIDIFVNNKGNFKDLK

C[C@H](N)C(=O)O [alanine] was tested. Which Ki [1] did it give?
The Ki was 15 mM.

For O=C(O)CC(O)(CC(=O)O)C(=O)O [citrate], which Ki (pyruvate kinase (Cdc19)) is on record?
Its Ki is about 5 mM.

For O=C(O)C(=O)Cc1ccccc1 [phenylpyruvate], which Ki [2] is on record?
Its Ki is 1 to 4 mM.
